Measurements as given in US8802849B2, “Tricyclic benzo[4,5]thieno-[2,3-d]pyrimidine-4-yl-amin derivatives, their salts, process for producing the compounds and their pharmaceutical use” (Vichem Chemie Kutató Kft., priority 2008, dated 2014).

Target: PDGFR-beta (Homo sapiens, UniProt P09619)
Test: PDGFR-beta kinase assay
Type: biochemical
Conditions: 10 μM compound; read-out: PDGFR-beta percent of inhibition
How it was run: (§1)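 Radiometric assay at 10 μM compound: kinase set for 10% ATP turnover, ATP at KmATP plus [γ-33P]ATP 12.5 μCi/ml, substrate at 5-fold over Km. Incubated 1 hour at room temperature, EDTA stop, filter capture and 33P counting.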

Sequence of PDGFR-beta (P09619 33-1106, species assumed): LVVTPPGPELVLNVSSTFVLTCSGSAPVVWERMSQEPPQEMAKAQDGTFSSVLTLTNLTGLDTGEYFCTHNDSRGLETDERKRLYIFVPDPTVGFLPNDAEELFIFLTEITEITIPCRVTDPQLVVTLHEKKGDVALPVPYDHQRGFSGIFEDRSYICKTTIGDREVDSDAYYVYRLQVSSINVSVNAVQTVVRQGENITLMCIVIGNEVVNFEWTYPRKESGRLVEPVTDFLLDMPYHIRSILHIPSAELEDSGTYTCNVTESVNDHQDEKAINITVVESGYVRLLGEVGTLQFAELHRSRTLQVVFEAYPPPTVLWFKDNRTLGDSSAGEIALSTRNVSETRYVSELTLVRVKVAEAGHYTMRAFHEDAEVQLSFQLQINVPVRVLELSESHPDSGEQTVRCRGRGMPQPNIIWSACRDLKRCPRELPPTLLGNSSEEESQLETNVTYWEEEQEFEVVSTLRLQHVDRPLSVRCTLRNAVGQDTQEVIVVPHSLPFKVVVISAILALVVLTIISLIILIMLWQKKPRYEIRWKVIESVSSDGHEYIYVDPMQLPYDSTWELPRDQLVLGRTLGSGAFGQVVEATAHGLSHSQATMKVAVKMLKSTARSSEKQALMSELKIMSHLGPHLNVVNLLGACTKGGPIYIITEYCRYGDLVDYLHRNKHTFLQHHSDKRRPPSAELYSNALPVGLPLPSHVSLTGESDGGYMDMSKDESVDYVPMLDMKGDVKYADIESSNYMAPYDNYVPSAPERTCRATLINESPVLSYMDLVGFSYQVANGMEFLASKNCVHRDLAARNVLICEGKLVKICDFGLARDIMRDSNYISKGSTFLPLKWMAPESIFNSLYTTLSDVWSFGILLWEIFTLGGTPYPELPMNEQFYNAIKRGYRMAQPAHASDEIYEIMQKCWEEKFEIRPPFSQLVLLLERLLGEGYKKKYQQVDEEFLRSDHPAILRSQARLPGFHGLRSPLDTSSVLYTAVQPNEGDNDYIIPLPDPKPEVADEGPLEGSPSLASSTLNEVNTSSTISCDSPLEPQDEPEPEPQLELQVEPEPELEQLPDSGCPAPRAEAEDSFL

Compound | inhibition at 10 µM
Clc1cccc(Nc2ncnc3sc4ccccc4c23)c1 [Compound 22, Benzo[4,5]thieno[2,3-d]pyrimidin-4-yl-(3-chloro-phenyl)-amine] | -8%
Clc1cccc(Nc2nc(C3CC3)nc3sc4ccccc4c23)c1 [Compound 17, (2-Cyclopropyl-benzo[4,5]thieno[2,3-d]pyrimidin-4-yl)-(3-chloro-phenyl)-amine] | 0%

Target: CDK2/CycA (Homo sapiens, UniProt P24941)
Test: CDK2/CycA kinase assay
Type: biochemical
Conditions: 10 μM compound; read-out: CDK2/CycA percent of inhibition
How it was run: as §1

Compound | inhibition at 10 µM
Clc1cccc(Nc2ncnc3sc4ccccc4c23)c1 [Compound 22, Benzo[4,5]thieno[2,3-d]pyrimidin-4-yl-(3-chloro-phenyl)-amine] | -6%
Clc1cccc(Nc2nc(C3CC3)nc3sc4ccccc4c23)c1 [Compound 17, (2-Cyclopropyl-benzo[4,5]thieno[2,3-d]pyrimidin-4-yl)-(3-chloro-phenyl)-amine] | -2%

Target: Kit (Homo sapiens, UniProt P10721)
Test: Kit kinase assay
Type: biochemical
Conditions: 10 μM compound; read-out: Kit percent of inhibition
How it was run: as §1

Compound | inhibition at 10 µM
Clc1cccc(Nc2ncnc3sc4ccccc4c23)c1 [Compound 22, Benzo[4,5]thieno[2,3-d]pyrimidin-4-yl-(3-chloro-phenyl)-amine] | 1%
Clc1cccc(Nc2nc(C3CC3)nc3sc4ccccc4c23)c1 [Compound 17, (2-Cyclopropyl-benzo[4,5]thieno[2,3-d]pyrimidin-4-yl)-(3-chloro-phenyl)-amine] | 11%

Target: ROCK2 (Homo sapiens, UniProt O75116)
Test: ROCK2 kinase assay
Type: biochemical
Conditions: 10 μM compound; read-out: ROCK2 percent of inhibition
How it was run: as §1

Compound | inhibition at 10 µM
Clc1cccc(Nc2ncnc3sc4ccccc4c23)c1 [Compound 22, Benzo[4,5]thieno[2,3-d]pyrimidin-4-yl-(3-chloro-phenyl)-amine] | 4%
Clc1cccc(Nc2nc(C3CC3)nc3sc4ccccc4c23)c1 [Compound 17, (2-Cyclopropyl-benzo[4,5]thieno[2,3-d]pyrimidin-4-yl)-(3-chloro-phenyl)-amine] | 2%

Target: GSK-3beta (Homo sapiens, UniProt P49841)
Test: GSK-3beta kinase assay
Type: biochemical
Conditions: 10 μM compound; read-out: GSK-3beta percent of inhibition
How it was run: as §1

Compound | inhibition at 10 µM
Clc1cccc(Nc2ncnc3sc4ccccc4c23)c1 [Compound 22, Benzo[4,5]thieno[2,3-d]pyrimidin-4-yl-(3-chloro-phenyl)-amine] | 5%
Clc1cccc(Nc2nc(C3CC3)nc3sc4ccccc4c23)c1 [Compound 17, (2-Cyclopropyl-benzo[4,5]thieno[2,3-d]pyrimidin-4-yl)-(3-chloro-phenyl)-amine] | 3%

Target: Jnk1a1 (Homo sapiens, UniProt P45983)
Sequence (P45983 1-384 isoform P45983-2): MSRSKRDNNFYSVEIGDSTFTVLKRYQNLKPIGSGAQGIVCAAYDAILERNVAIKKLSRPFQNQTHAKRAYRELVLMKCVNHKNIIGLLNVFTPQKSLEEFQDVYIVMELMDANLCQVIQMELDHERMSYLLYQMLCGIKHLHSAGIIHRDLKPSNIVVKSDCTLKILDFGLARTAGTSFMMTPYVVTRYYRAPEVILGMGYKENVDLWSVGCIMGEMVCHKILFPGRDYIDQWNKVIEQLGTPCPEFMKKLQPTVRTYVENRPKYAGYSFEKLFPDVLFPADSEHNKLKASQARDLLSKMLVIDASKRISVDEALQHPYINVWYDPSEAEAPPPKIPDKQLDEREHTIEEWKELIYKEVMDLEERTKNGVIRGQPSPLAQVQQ
Test: Jnk1a1 kinase assay
Type: biochemical
Conditions: 10 μM compound; read-out: Jnk1a1 percent of inhibition
How it was run: as §1

Compound | inhibition at 10 µM
Clc1cccc(Nc2ncnc3sc4ccccc4c23)c1 [Compound 22, Benzo[4,5]thieno[2,3-d]pyrimidin-4-yl-(3-chloro-phenyl)-amine] | 0%
Clc1cccc(Nc2nc(C3CC3)nc3sc4ccccc4c23)c1 [Compound 17, (2-Cyclopropyl-benzo[4,5]thieno[2,3-d]pyrimidin-4-yl)-(3-chloro-phenyl)-amine] | -8%

Target: cMet (Homo sapiens, UniProt P08581)
Sequence (P08581 25-1390): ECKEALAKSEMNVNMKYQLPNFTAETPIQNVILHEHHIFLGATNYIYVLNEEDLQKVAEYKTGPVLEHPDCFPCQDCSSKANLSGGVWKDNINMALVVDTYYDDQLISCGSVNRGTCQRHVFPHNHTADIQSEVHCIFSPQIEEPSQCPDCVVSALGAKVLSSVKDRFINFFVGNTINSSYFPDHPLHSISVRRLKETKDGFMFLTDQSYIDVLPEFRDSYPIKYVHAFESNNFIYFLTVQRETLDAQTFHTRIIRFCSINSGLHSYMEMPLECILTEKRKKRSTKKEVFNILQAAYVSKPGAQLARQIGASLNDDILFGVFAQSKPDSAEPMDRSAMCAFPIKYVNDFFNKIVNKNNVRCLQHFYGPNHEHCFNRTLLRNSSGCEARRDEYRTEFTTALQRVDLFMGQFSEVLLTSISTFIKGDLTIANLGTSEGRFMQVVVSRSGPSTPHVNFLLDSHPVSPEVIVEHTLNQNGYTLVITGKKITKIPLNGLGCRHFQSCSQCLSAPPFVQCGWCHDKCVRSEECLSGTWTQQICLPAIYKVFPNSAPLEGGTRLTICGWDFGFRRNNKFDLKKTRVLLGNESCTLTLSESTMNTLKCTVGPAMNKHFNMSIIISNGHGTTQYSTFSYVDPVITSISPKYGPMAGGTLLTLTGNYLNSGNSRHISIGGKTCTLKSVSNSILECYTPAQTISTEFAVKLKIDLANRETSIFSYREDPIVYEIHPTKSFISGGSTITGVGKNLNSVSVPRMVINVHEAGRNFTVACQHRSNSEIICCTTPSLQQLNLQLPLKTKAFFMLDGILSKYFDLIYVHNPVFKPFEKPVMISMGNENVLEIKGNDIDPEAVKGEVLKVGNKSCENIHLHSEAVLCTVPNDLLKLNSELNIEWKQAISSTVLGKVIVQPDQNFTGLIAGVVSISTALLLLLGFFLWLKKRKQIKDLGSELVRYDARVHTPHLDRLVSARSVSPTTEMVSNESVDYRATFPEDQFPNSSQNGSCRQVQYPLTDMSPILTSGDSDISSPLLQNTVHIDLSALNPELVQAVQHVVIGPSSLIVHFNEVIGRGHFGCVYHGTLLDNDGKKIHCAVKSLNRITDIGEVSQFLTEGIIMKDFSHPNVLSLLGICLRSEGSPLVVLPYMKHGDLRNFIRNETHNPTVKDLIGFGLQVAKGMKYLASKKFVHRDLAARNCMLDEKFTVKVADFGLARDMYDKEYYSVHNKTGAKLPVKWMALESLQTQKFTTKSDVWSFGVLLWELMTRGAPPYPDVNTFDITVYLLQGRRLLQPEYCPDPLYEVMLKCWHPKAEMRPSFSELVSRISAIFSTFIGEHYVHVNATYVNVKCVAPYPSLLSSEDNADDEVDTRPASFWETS
Test: cMet kinase assay
Type: biochemical
Conditions: 10 μM compound; read-out: cMet percent of inhibition
How it was run: as §1

Compound | inhibition at 10 µM
Clc1cccc(Nc2ncnc3sc4ccccc4c23)c1 [Compound 22, Benzo[4,5]thieno[2,3-d]pyrimidin-4-yl-(3-chloro-phenyl)-amine] | 5%
Clc1cccc(Nc2nc(C3CC3)nc3sc4ccccc4c23)c1 [Compound 17, (2-Cyclopropyl-benzo[4,5]thieno[2,3-d]pyrimidin-4-yl)-(3-chloro-phenyl)-amine] | -5%

Target: EGFR (Homo sapiens, UniProt P00533)
Test: EGFR kinase assay (33P-ATP filter plate)
Type: biochemical
Conditions: 10 μM compound; read-out: EGFR percent of inhibition
How it was run: as §1

Compound | inhibition at 10 µM
Clc1cccc(Nc2ncnc3sc4ccccc4c23)c1 [Compound 22, Benzo[4,5]thieno[2,3-d]pyrimidin-4-yl-(3-chloro-phenyl)-amine] | 98%
Clc1cccc(Nc2nc(C3CC3)nc3sc4ccccc4c23)c1 [Compound 17, (2-Cyclopropyl-benzo[4,5]thieno[2,3-d]pyrimidin-4-yl)-(3-chloro-phenyl)-amine] | 86%

Target: P56Lck (Homo sapiens, UniProt P06239)
Test: P56Lck kinase assay
Type: biochemical
Conditions: 10 μM compound; read-out: P56Lck percent of inhibition
How it was run: as §1

Compound | inhibition at 10 µM
Clc1cccc(Nc2ncnc3sc4ccccc4c23)c1 [Compound 22, Benzo[4,5]thieno[2,3-d]pyrimidin-4-yl-(3-chloro-phenyl)-amine] | 11%
Clc1cccc(Nc2nc(C3CC3)nc3sc4ccccc4c23)c1 [Compound 17, (2-Cyclopropyl-benzo[4,5]thieno[2,3-d]pyrimidin-4-yl)-(3-chloro-phenyl)-amine] | 9%

Target: c-Src (Homo sapiens, UniProt P12931)
Test: c-Src kinase assay
Type: biochemical
Conditions: 10 μM compound; read-out: c-Src percent of inhibition
How it was run: as §1

Compound | inhibition at 10 µM
Clc1cccc(Nc2ncnc3sc4ccccc4c23)c1 [Compound 22, Benzo[4,5]thieno[2,3-d]pyrimidin-4-yl-(3-chloro-phenyl)-amine] | 9%
Clc1cccc(Nc2nc(C3CC3)nc3sc4ccccc4c23)c1 [Compound 17, (2-Cyclopropyl-benzo[4,5]thieno[2,3-d]pyrimidin-4-yl)-(3-chloro-phenyl)-amine] | 1%

System: not given
Test: not given
Conditions: not given

Compound | melting point
Clc1cccc(Nc2ncnc3sc4ccccc4c23)c1 [Compound 22, Benzo[4,5]thieno[2,3-d]pyrimidin-4-yl-(3-chloro-phenyl)-amine] | 168 °C
Clc1cccc(Nc2nc(C3CC3)nc3sc4ccccc4c23)c1 [Compound 17, (2-Cyclopropyl-benzo[4,5]thieno[2,3-d]pyrimidin-4-yl)-(3-chloro-phenyl)-amine] | 188 °C

Target: RSK1 (Homo sapiens, UniProt Q15418)
Sequence (Q15418 whole entry, species assumed): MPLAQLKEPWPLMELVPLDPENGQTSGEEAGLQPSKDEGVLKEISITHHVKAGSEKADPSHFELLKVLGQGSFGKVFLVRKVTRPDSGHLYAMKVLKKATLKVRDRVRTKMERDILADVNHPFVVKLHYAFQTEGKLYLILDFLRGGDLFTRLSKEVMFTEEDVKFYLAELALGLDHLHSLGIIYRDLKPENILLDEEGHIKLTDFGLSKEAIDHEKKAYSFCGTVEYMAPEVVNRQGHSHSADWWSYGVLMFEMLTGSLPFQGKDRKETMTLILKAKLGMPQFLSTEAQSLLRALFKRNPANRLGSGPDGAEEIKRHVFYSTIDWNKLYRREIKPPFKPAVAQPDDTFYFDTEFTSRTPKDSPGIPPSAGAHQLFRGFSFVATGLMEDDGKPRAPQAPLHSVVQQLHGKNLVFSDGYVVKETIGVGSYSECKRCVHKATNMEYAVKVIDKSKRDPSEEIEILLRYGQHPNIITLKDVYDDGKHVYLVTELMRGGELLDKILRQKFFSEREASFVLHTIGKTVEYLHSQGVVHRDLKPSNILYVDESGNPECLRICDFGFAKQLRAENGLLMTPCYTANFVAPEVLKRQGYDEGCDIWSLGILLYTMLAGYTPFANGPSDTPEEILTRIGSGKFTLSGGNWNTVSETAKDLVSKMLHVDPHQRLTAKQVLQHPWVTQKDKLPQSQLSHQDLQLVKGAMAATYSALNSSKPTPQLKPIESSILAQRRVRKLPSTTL
Test: RSK1 kinase assay
Type: biochemical
Conditions: 10 μM compound; read-out: RSK1 percent of inhibition
How it was run: as §1

Compound | inhibition at 10 µM
Clc1cccc(Nc2ncnc3sc4ccccc4c23)c1 [Compound 22, Benzo[4,5]thieno[2,3-d]pyrimidin-4-yl-(3-chloro-phenyl)-amine] | -2%
Clc1cccc(Nc2nc(C3CC3)nc3sc4ccccc4c23)c1 [Compound 17, (2-Cyclopropyl-benzo[4,5]thieno[2,3-d]pyrimidin-4-yl)-(3-chloro-phenyl)-amine] | -7%

Target: InsR (Homo sapiens, UniProt P06213)
Test: InsR kinase assay
Type: biochemical
Conditions: 10 μM compound; read-out: InsR percent of inhibition
How it was run: as §1

Compound | inhibition at 10 µM
Clc1cccc(Nc2ncnc3sc4ccccc4c23)c1 [Compound 22, Benzo[4,5]thieno[2,3-d]pyrimidin-4-yl-(3-chloro-phenyl)-amine] | 18%
Clc1cccc(Nc2nc(C3CC3)nc3sc4ccccc4c23)c1 [Compound 17, (2-Cyclopropyl-benzo[4,5]thieno[2,3-d]pyrimidin-4-yl)-(3-chloro-phenyl)-amine] | -5%

Target: MAPK-ERK1 (Homo sapiens, UniProt P27361)
Test: MAPK-ERK1 kinase assay
Type: biochemical
Conditions: 10 μM compound; read-out: MAPK-ERK1 percent of inhibition
How it was run: as §1

Compound | inhibition at 10 µM
Clc1cccc(Nc2ncnc3sc4ccccc4c23)c1 [Compound 22, Benzo[4,5]thieno[2,3-d]pyrimidin-4-yl-(3-chloro-phenyl)-amine] | 5%
Clc1cccc(Nc2nc(C3CC3)nc3sc4ccccc4c23)c1 [Compound 17, (2-Cyclopropyl-benzo[4,5]thieno[2,3-d]pyrimidin-4-yl)-(3-chloro-phenyl)-amine] | 2%

Target: P70S6K (Homo sapiens, UniProt P23443)
Test: P70S6K kinase assay
Type: biochemical
Conditions: 10 μM compound; read-out: P70S6K percent of inhibition
How it was run: as §1

Compound | inhibition at 10 µM
Clc1cccc(Nc2ncnc3sc4ccccc4c23)c1 [Compound 22, Benzo[4,5]thieno[2,3-d]pyrimidin-4-yl-(3-chloro-phenyl)-amine] | 5%
Clc1cccc(Nc2nc(C3CC3)nc3sc4ccccc4c23)c1 [Compound 17, (2-Cyclopropyl-benzo[4,5]thieno[2,3-d]pyrimidin-4-yl)-(3-chloro-phenyl)-amine] | 7%

Target: SRPK1 (Homo sapiens, UniProt Q96SB4)
Test: SRPK1 kinase assay
Type: biochemical
Conditions: 10 μM compound; read-out: SRPK1 percent of inhibition
How it was run: as §1

Compound | inhibition at 10 µM
Clc1cccc(Nc2ncnc3sc4ccccc4c23)c1 [Compound 22, Benzo[4,5]thieno[2,3-d]pyrimidin-4-yl-(3-chloro-phenyl)-amine] | 6%
Clc1cccc(Nc2nc(C3CC3)nc3sc4ccccc4c23)c1 [Compound 17, (2-Cyclopropyl-benzo[4,5]thieno[2,3-d]pyrimidin-4-yl)-(3-chloro-phenyl)-amine] | 9%

Target: Abl (Homo sapiens, UniProt P00519)
Sequence (P00519 whole entry, species assumed): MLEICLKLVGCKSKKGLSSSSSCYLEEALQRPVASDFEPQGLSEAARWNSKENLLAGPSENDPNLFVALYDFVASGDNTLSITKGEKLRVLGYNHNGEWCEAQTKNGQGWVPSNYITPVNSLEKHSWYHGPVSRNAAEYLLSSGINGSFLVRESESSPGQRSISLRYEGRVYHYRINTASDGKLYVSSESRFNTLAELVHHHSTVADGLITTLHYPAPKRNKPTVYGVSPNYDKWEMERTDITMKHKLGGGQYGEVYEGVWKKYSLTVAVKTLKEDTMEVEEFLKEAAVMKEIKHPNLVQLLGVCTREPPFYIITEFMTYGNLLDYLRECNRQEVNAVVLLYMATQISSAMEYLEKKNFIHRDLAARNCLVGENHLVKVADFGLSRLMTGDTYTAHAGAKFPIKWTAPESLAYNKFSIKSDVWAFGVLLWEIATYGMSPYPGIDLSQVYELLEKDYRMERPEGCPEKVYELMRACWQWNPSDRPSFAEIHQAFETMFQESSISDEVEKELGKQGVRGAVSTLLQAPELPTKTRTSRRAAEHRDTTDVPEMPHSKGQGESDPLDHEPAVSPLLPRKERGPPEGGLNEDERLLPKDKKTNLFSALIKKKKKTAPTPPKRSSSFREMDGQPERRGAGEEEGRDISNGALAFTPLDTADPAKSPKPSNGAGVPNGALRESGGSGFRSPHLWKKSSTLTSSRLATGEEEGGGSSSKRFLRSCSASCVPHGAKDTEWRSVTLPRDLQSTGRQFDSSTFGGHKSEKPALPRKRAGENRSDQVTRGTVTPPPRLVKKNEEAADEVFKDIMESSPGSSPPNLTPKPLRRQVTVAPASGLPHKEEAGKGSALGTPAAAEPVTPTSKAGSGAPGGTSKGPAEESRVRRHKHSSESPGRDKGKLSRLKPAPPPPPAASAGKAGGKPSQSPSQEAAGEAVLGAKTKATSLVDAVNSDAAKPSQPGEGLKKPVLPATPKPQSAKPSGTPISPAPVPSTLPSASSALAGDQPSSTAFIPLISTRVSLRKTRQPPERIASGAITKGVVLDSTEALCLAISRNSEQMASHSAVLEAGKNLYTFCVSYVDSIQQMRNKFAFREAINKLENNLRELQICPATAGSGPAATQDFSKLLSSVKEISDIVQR
Test: Abl kinase assay
Type: biochemical
Conditions: 10 μM compound; read-out: Abl percent of inhibition
How it was run: as §1

Compound | inhibition at 10 µM
Clc1cccc(Nc2ncnc3sc4ccccc4c23)c1 [Compound 22, Benzo[4,5]thieno[2,3-d]pyrimidin-4-yl-(3-chloro-phenyl)-amine] | 8%
Clc1cccc(Nc2nc(C3CC3)nc3sc4ccccc4c23)c1 [Compound 17, (2-Cyclopropyl-benzo[4,5]thieno[2,3-d]pyrimidin-4-yl)-(3-chloro-phenyl)-amine] | 7%

Target: CK1-alpha (Homo sapiens, UniProt P48729)
Sequence (P48729 whole entry): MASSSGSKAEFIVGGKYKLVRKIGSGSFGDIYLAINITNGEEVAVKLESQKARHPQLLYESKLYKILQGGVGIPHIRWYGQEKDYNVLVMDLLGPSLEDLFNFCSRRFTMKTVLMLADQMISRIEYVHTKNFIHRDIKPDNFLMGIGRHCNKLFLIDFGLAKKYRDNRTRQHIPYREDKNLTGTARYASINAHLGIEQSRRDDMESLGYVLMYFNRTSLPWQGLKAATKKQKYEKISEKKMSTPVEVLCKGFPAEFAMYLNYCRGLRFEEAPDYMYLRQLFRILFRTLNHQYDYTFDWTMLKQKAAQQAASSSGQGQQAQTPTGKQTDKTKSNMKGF
Test: CK1-alpha kinase assay
Type: biochemical
Conditions: 10 μM compound; read-out: CK1-alpha percent of inhibition
How it was run: as §1

Compound | inhibition at 10 µM
Clc1cccc(Nc2ncnc3sc4ccccc4c23)c1 [Compound 22, Benzo[4,5]thieno[2,3-d]pyrimidin-4-yl-(3-chloro-phenyl)-amine] | -2%
Clc1cccc(Nc2nc(C3CC3)nc3sc4ccccc4c23)c1 [Compound 17, (2-Cyclopropyl-benzo[4,5]thieno[2,3-d]pyrimidin-4-yl)-(3-chloro-phenyl)-amine] | 0%

Target: AKT1/PKBa (Homo sapiens, UniProt P31749)
Test: AKT1/PKBa kinase assay
Type: biochemical
Conditions: 10 μM compound; read-out: AKT1/PKBa percent of inhibition
How it was run: as §1

Compound | inhibition at 10 µM
Clc1cccc(Nc2ncnc3sc4ccccc4c23)c1 [Compound 22, Benzo[4,5]thieno[2,3-d]pyrimidin-4-yl-(3-chloro-phenyl)-amine] | -7%
Clc1cccc(Nc2nc(C3CC3)nc3sc4ccccc4c23)c1 [Compound 17, (2-Cyclopropyl-benzo[4,5]thieno[2,3-d]pyrimidin-4-yl)-(3-chloro-phenyl)-amine] | -1%

Target: c-Raf (Homo sapiens, UniProt P04049)
Test: c-Raf kinase assay
Type: biochemical
Conditions: 10 μM compound; read-out: c-Raf percent of inhibition
How it was run: as §1

Compound | inhibition at 10 µM
Clc1cccc(Nc2ncnc3sc4ccccc4c23)c1 [Compound 22, Benzo[4,5]thieno[2,3-d]pyrimidin-4-yl-(3-chloro-phenyl)-amine] | -6%
Clc1cccc(Nc2nc(C3CC3)nc3sc4ccccc4c23)c1 [Compound 17, (2-Cyclopropyl-benzo[4,5]thieno[2,3-d]pyrimidin-4-yl)-(3-chloro-phenyl)-amine] | 12%

Target: T1, IKK-beta (Homo sapiens, UniProt O14920)
T1 sequence (O14920 1-756): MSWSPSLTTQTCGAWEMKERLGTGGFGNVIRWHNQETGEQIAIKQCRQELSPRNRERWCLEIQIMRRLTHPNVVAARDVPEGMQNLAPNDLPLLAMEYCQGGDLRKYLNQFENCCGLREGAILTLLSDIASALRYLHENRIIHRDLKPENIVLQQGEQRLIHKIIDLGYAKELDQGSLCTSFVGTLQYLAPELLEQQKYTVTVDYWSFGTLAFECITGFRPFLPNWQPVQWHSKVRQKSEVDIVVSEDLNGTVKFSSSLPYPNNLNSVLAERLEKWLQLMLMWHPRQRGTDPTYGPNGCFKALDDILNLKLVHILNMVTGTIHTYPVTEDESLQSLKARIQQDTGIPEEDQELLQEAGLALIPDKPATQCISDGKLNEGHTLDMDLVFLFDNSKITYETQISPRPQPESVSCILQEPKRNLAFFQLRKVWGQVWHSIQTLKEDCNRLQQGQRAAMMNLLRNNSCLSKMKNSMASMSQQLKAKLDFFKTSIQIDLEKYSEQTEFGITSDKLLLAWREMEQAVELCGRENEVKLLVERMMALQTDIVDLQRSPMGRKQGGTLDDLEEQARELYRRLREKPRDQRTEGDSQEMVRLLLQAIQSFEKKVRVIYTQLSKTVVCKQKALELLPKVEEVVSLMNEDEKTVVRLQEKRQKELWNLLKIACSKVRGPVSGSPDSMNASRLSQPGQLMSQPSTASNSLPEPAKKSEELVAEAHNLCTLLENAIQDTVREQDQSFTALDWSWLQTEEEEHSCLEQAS
Test: IKK-beta kinase assay
Type: biochemical
Conditions: 10 μM compound; read-out: IKK-beta percent of inhibition
How it was run: as §1

Compound | inhibition at 10 µM
Clc1cccc(Nc2ncnc3sc4ccccc4c23)c1 [Compound 22, Benzo[4,5]thieno[2,3-d]pyrimidin-4-yl-(3-chloro-phenyl)-amine] | 11%
Clc1cccc(Nc2nc(C3CC3)nc3sc4ccccc4c23)c1 [Compound 17, (2-Cyclopropyl-benzo[4,5]thieno[2,3-d]pyrimidin-4-yl)-(3-chloro-phenyl)-amine] | 8%
